Data taken from patent publication US20110142848A1, “ANTI-BETA-2-MICROGLOBULIN AGENTS AND THE USE THEREOF” (priority 2008, published 2011).

Key:
neo-control cells = test: MTS cell proliferation assay, neo-control cells; format: cell-based, human
Method: (§1) For example, six thousand (6,000) cells per well may be plated in 96 well plates, which may be cultured in 1% DCC-FBS (dextran-coated, charcoal-treated fetal bovine serum) containing T medium (C4-2B) or serum-free T medium (PC3) with 5% CO2 at 37° C. overnight. Cells may then be treated with anti-β2-M mAbs for 48 h. Chemotherapeutic agents, such as PS-341, gemcitabine, cisplatin, doxorubicin, taxotere, or 17-AAG, may then be added to the culture media. Two to four days post-treatment, cell growth may be determined by MTS assay using the CellTiter96 Aqueous One Solution Cell Proliferation Assay (Promega) according to the manufacturer's instructions. Results from these experiments are shown in FIGS. 7-21, with various chemotherapeutic agents.

C4-2B (KD) cells = test: MTS cell proliferation assay, C4-2B (KD); format: cell-based, human; conditions: C4-2B (KD) versus neo-control
Method: as §1, with “Chemotherapeutic agents, such as PS-341, gemcitabine, cisplatin, doxorubicin, taxotere, or 17-AAG, may then be added to the culture media.” left out, “instructions.” for “instructions. Results from these experiments are shown in FIGS. 7-21, with various chemotherapeutic agents.”

With `CC(C)C[C@H](NC(=O)[C@H](Cc1ccccc1)NC(=O)c1cnccn1)B(O)O` [PS-341, bortezomib] the “growth inhibition by agent alone” value (neo-control cells; PS-341 at concentrations of 1 (AM or higher)) was “effective by itself” and the “sensitivity to growth inhibition, β2-M knockdown cells compared with neo-control cells” value (C4-2B (KD) cells) was “more sensitive”.
`N.N.[Cl][Pt][Cl]` [cisplatin] was tested, and the “sensitivity to growth inhibition, β2-M knockdown cells compared with neo-control cells” value (C4-2B (KD) cells) was “more sensitive”.
`Nc1ccn([C@@H]2O[C@H](CO)[C@@H](O)C2(F)F)c(=O)n1` [gemcitabine] was tested, and the “growth inhibition by agent alone” value (neo-control cells; gemcitabine at lower doses (10 μM or lower)) was “not particularly effective” and the “sensitivity to growth inhibition, β2-M knockdown cells compared with neo-control cells” value (C4-2B (KD) cells) was “more sensitive”.
In the case of `CC(=O)O[C@@]12CO[C@@H]1C[C@H](O)[C@@]1(C)C(=O)[C@H](O)C3=C(C)[C@@H](OC(=O)[C@H](O)[C@@H](NC(=O)OC(C)(C)C)c4ccccc4)C[C@@](O)([C@@H](OC(=O)c4ccccc4)[C@H]21)C3(C)C` [taxotere], the “sensitivity to growth inhibition, β2-M knockdown cells compared with neo-control cells” value (C4-2B (KD) cells) is reported as “more sensitive”.
